Legend:
[1] = tested on: Male Sprague Dawley rats; assay: Forced Swim Test (Acute), FST; format: in vivo; details: p.o.
Description: The Forced Swim test (FST) is a commonly used procedure to screen compounds for possible antidepressant properties. This test is also known as the behavioral despair test. Rodents placed in […] tanks filled with water present a wide variety of escape or immobility behaviors. Antidepressant drugs from different classes markedly increase escape behaviors and/or decrease latency or duration of immobility.
Venlafaxine and desipramine were dissolved in water. All drugs and their vehicles were administered orally (p.o.) by gavage in a volume of 5 mL/kg.
Male Sprague Dawley rats (140 to 160 g) from Charles River Laboratories Wilmington, Mass. were used. The animals went through a five-day quarantine period before being subjected to the experimental procedure.
Animals were housed in groups of four in plastic cages at an ambient temperature of 21° C. to 23° C. with an automated 12 hour light/dark cycle and access to water and commercial rodent food ad libitum. Animals were not handled more than for the routine bedding change prior to pre-test swim session.
Each experiment consisted of seven treatment groups with n=4 animals per group. A total of 28 animals per experiment were used. Two consecutive experiments (1 and 2, 3 and 4, and 5 and 6) were exact replicas of each other. […] One treatment group of n=4 animals in each experiment was a vehicle treated group. […] In experiments 5 and 6 the effects of venlafaxine and maprotyline at 12 mg/kg, 30 mg/kg, and 60 mg/kg were tested.
The basic apparatus consisted of a cylinder (46 cm tall×˜20 cm diameter) filled with water to 30 cm deep, at a temperature of 25±1° C. The automated version of the FST was used to perform the experiments. Plumbing for automatic filling and emptying water connected the four cylinders. Cylinders were placed in the dividing chambers 25 cm wide to separate animals visually. Each 5-minute experimental session was videotaped and analyzed in real time by computer software (Clever Systems, Inc.) for four animals at a time. The immobility, swimming, climbing and escape times were recorded by the software. The four activities are defined as follow. Immobility: the animal floats motionlessly or makes only those movements necessary to keep its head above water; Climb: the animal vigorously moves vertically while scratching the wall around the cylinder; Swim: the animal moves horizontally around in the cylinder more than necessary to keep its head above water; and Escape: sum of all vigorous active movements.
The ability of a test compound to decrease the duration or frequency of immobility, or changes in swimming, climbing and escape times, was measured using the FST procedure described above. […] The analysis of the results in the studies described was focused on the immobility time during 5-minute test session.
There were two swim sessions in each experiment. First, a pre-test swim session for 15 minutes was performed. Following 48 hours later was a test session of 5-minute duration. Upon completion of a swim session, each animal was placed under a heat lamp in a cage with soft bedding for approximately 15 minutes to prevent hypothermia.
Animals were pre-treated with a vehicle or test compound after completing the pre-test swim session, then 24 hours later and then shortly prior to the 5-minute test session; i.e., three injections were given to each animal between the two swim sessions that occurred on 3 consecutive days.
Data were analyzed using GraphPad Prism software (GraphPad Software, Inc. San Diego, Calif.). For the comparison of the effect of different doses for various drugs on immobility in the FST one-way ANOVA was used followed by Dunnett's multiple comparison test. […] The ED50 and Emax values were statistically compared using two-tail t-test.

[2] = tested on: Male Wistar rats; assay: Chronic Mild Stress Model (Chronic), sucrose consumption; format: in vivo
Source text: In the chronic mild stress (CMS) model rats subjected to a variety of mild stressors for a prolonged period of time show, among other behavioural, biochemical and physiological impairments, a substantial decrease in their responsiveness to rewarding stimuli. This deficit is usually monitored by a decrease in the consumption of the 1% sucrose solution, but can also be seen in other tests, such as place preference conditioning or intracranial self-stimulation. Since the subsensitivity to reward appears to reflect anhedonia (inability to experience pleasure), which is a core symptom of major depressive disorders, the CMS procedure may serve as a suitable research tool in studies into the mechanisms of antidepressant action.
Male Wistar rats were brought into the laboratory two months before the start of the experiment. Except as described below, the animals were singly housed with food and water freely available, and were maintained on a 12-h light/dark and in a constant temperature (22±2° C.) and humidity (50±5%) conditions.
The animals were first trained to consume a 1% sucrose solution; training consisted of eight 1 h baseline tests in which sucrose was presented, in the home cage, following 14 h food and water deprivation; the sucrose intake was measured by weighing pre-weighed bottles containing the sucrose solution, at the end of the test. Subsequently, sucrose consumption was monitored, under similar conditions, at weekly intervals throughout the whole experiment.
On the basis of their sucrose intakes in the final baseline test, the animals were divided into two matched groups. One group of animals was subjected to the chronic mild stress procedure for a period of 7 consecutive weeks. Each week of stress regime consisted of: two periods of food or water deprivation, two periods of 45 degree cage tilt, two periods of intermittent illumination (lights on and off every 2 h), two periods of soiled cage (250 ml water in sawdust bedding), one period of paired housing, two periods of low intensity stroboscopic illumination (150 flashes/min), and three periods of no stress. All stressors were 10-14 h of duration and were applied individually and continuously, day and night. Control animals were housed in separate rooms and had no contact with the stressed animals. They were deprived of food and water for the 14 h preceding each sucrose test, but otherwise food and water were freely available in the home cage.
The drugs were administered at approx. 10.00 and the weekly sucrose tests were carried out 24 h following the last drug injections. […]
All results obtained in this study were analyzed by multiple analyses of variance with three between-subjects factors (stress/control, drug treatments and successive sucrose tests). […]

## NS(=O)(=O)NC[C@H]1COc2cc(Cl)ccc2O1 [Compound #8, (2S)-(−)-N-(6-Chloro-2,3-dihydro-benzo[1,4]dioxin-2-ylmethyl)-sulfamide]
[1]; Rattus norvegicus, po, 5 min, three administrations, 5-minute test session, read-out: ED50 (immobility)
  ED50: 5.6 ± 0.6 mg/kg
[1]; 5-minute testing session
  effect in the FST (immobility time): antidepressant-like activity in the FST
[1]; immobility
  Emax (immobility): 67.0 ± 11.6 s
[2]; controls, 12, 30 or 60 mg/kg once daily i.p. for five weeks
  Treatment effect on sucrose intake vs vehicle, control animals: did not cause significant Treatment effects
[2]; stressed, 12, 30 or 60 mg/kg once daily i.p. for five weeks
  Treatment effect on sucrose intake vs vehicle, stressed animals: did not cause significant Treatment effects

Reference: patent publication US20070155827A1, “USE OF BENZO-FUSED HETEROCYCLE SULFAMIDE DERIVATIVES FOR THE TREATMENT OF DEPRESSION” (priority 2005, published 2007)
